Values quoted from earlier work as cited in patent publication US20140004043A1, “CRYPTOPHANE DERIVATIVES AND METHODS OF USE THEREOF” (Georgetown Univeristy, priority 2010, published 2014).
Like-named read-outs stand apart in the source and are kept apart here.

Conditions: cited from earlier work

| SMILES | binding constant with xenon Ka (293 K in 1,1,2,2-tetrachloroethane-d2 (TCE-d2)) | Ka, association constant for xenon binding (TCE-d2, 293 K) | Ka, association constant for xenon binding (TCE-d2, 278 K (footnote d)) | binding constant Ka of the xenon complex (organic solution, 278K) |
| --- | --- | --- | --- | --- |
| c1cc2c3cc1OCOc1ccc4c(c1)Cc1ccc5cc1Cc1ccc(cc1C4)OCOc1ccc(c(c1)Cc1ccc(cc1C2)OCO5)C3 (racemic) [Cryptophane 1, (±)-cryptophane-1,1,1] | ~10,000 M^−1 | 10000 M⁻¹ |  |  |
| COc1cc2c3cc1OCCOc1cc4c(cc1OC)Cc1cc5c(OC)cc1Cc1cc(c(OC)cc1C4)OCCOc1cc(c(cc1OC)C3)Cc1cc(OC)c(cc1C2)OCCO5 [A (or 222), (±)-cryptophane-A] |  |  | 3300^d | 3900 M⁻¹ |
